In brackets after ≈: the same amount, converted by molar mass. Entries after “also recorded” stand apart in the source; their conditions may differ. Like-named read-outs stand apart in the source and are kept apart here.
Key:
[1] = system: Pseudomonas aeruginosa; assay: Checkerboard synergy assay with LpxCi-4; assay type: cell-based; details: combination with LpxCi-4 (3936), Pseudomonas aeruginosa (ATCC27853 in text)
Text: (§1) One classic method for assessing synergy, referred to as the checkerboard assay, is used to predict the efficacy of antibacterial agents, and is described by Scribner et. al., (Antimicrobial Agents and Chemotherapy 21(6):939-943 (1982)) and in Goodman & Gilman (The Pharmacological Basis of Therapeutics, Sixth Edition, pp. 1097-1098 (1980)). The checkerboard assay involves serial two-fold dilutions of the antibiotics individually and in combination in broth, which is then inoculated with the microorganism to be tested. After incubation, the minimum inhibitory concentration (MIC) of each drug used individually and in combination is determined (N.B., the MIC is the lowest concentration of the drug that inhibits growth in the medium). Synergism is indicated by a decrease in the MIC of each drug when used in combination. Antagonism is indicated by an increase in the MIC of either or both drugs when used in combination. Alternate methods of assessing synergy are reviewed in Greco, et al., Pharmacological Reviews 47(2):[…] (1995), incorporated herein by reference in its entirety.
(§2) Partial or full inhibition of LpxC should compromise the outer membrane and thus allow these synergizing agents to enter the cells and exert an antibacterial effect at concentrations where cells untreated with an LpxC inhibitor are unaffected. As a first step, checkerboard synergy assays for a variety of antibacterial agents were perform with several LpxC inhibitors, on several species of gram negative bacteria.
(§3) Bacterial isolates were cultivated from −70° C. frozen stocks of the indicated strains by overnight passages at 35° C. in ambient air on Mueller-Hinton agar (Beckton Dickinson, Franklin Lakes, N.J.). Minimum Inhibitory Concentrations (MICs) were determined by the broth microdilution method in accordance with the Clinical and Laboratory Standards Institute (CLSI) guidelines. In brief, organism suspensions were adjusted to a 0.5 McFarland standard to yield a final inoculum between 3×10^5 and 7×10^5 colony-forming units (CFU)/mL. Drug dilutions and inocula were made in sterile, cation adjusted Mueller-Hinton Broth (Beckton Dickinson). An inoculum volume of 100 μL was added to wells containing 100 μL of broth with 2-fold serial dilutions of drug. All inoculated microdilution trays were incubated in ambient air at 35° C. for 18-24 hours. Following incubation, the lowest concentration of the drug that prevented visible growth (OD600 nm <0.05) was recorded as the MIC.
(§4) Standard checkerboard assays were performed with a combination of the indicated agents and LpxCi-4. Table 2 provides the FICI calculated according to standard techniques.

[2] = system: Yersinia enterocolitica; assay: Checkerboard synergy assay with LpxCi-4; assay type: cell-based; details: combination with LpxCi-4
Text: as §1, §2, §3, §4

[3] = system: Klebsiella pneumoniae; assay: Checkerboard synergy assay with LpxCi-4; assay type: cell-based; details: combination with LpxCi-4
Text: as §1, §2, §3, §4

[4] = system: envA+ (D21) E. coli; assay: MIC by broth microdilution, isogenic envA+ strain; assay type: cell-based
Experimental: as §3

[5] = system: P. aeruginosa (ATCC27853); details: for ΔLogCFU vs 24 hr / Log CFU Mean: 24 hr; for Log CFU Mean: n=5
Text: (§5) The model was run essentially as described by Craig and others (see Gudmundsson et al., “Murine Thigh Infection Model,” Handbook of Animal Models of Infection, M. A. Sande and O. Zak, Eds.; London: Academic Press, 1999, pp 137-144). Briefly, mice were rendered neutropenic prior to infection with 2 doses of cyclophosphamide, and then infected intramuscularly in the thigh with inocula of 10^3-10^5 CFU of either K. pneumo. (ATCC43816) or P. aeruginosa (ATCC27853). Antibiotics or vehicle alone as a negative control were administered twice at 2 hrs and 14 hrs post-infection. The animals were kept neutropenic for the duration of the experiment in order to minimize the effect of white blood cells on the infection such that the microbiological readout measures the in vivo interaction of drugs and bacteria. At 24 hrs post-infection, thighs were harvested, homogenized, and plated to measure the number of CFUs surviving per thigh. Thighs from a subset of animals were also harvested 2 hrs post-infection to record the CFUs present just prior to the first antibiotic treatment (pre-treatment).
This table focuses on the sensitive part of the LpxCi-4 dose response curve (30 mg/kg) by examining the mean log CFU at 0 or 24 hours, as well as the log change in CFU at 24 hours relative to zero hours (“ΔLogCFU vs […]”). Data is given for animals treated with vehicle, LpxCi-4 at 30 mg/kg, a second agent alone at the indicated doses or the combination of LpxCi-4 at 30 mg/kg plus the second agent at the indicated dose. The standard errors for each measurement are also given (n=5 animals/group). By comparing the observed drop in CFU of the combination with the sum of the drop in CFU associated with each of the two agents given separately, one can determine whether the combination is, in fact, synergistic in vivo.

[6] = system: envA1 (D22) E. coli; assay: MIC by broth microdilution, isogenic envA1 mutant strain; assay type: cell-based; details: for MIC: Strain envA1 (D21); for Fold decrease in MIC (envA+/envA1): envA+ vs envA1 E. coli
Experimental: as §3

[7] = system: E. coli ATCC25922; assay: MIC by broth microdilution, wild type strain ATCC25922; assay type: cell-based
Experimental: as §3

[8] = system: gram negative bacteria; assay: Checkerboard synergy score at fractions of the antibacterial agent's MIC, with LpxCi-1, -2, -3; assay type: cell-based; parameters: scale not given here
Experimental: as §2, §3

[9] = system: K. pneumo. (ATCC43816); assay: Neutropenic thigh in vivo efficacy model (mice); parameters: species or system Klebsiella pneumoniae; details: K. pneumo. (ATCC43816); summary
Text: as §5

[10] = second block of Table 5, mg/kg/day b.i.d.: 3936 30, Eryth. 60, Dapto. 3, Oxacil. 100
[11] = first block of Table 5, mg/kg/day b.i.d.: 3936 30, Rif. 30, Azith. 50

Compound	FICI index [1]	FICI index [2]	FICI index [3]	MIC [4]	MIC [6]	MIC [7]	also measured
CO/N=C(\C(=O)N[C@@H]1C(=O)N2C(C(=O)O)=C(COC(C)=O)CS[C@H]12)c1csc(N)n1 [Cefotaxime, cefotaxime]	≦1.0	≦0.5	0.5	–	–	–	–
Nc1nc(/C(=N/O)C(=O)N[C@@H]2C(=O)N3C(C(=O)O)=C(/C=C4\CCN([C@@H]5CCNC5)C4=O)CS[C@H]23)ns1 [Ceftobioprole]	0.5	0.5	0.63	–	–	–	–
CCC[C@@H]1C[C@@H](C(=O)N[C@@H]([C@H]2O[C@H](SC)[C@H](O)[C@@H](O)[C@H]2O)[C@H](C)Cl)N(C)C1 [Clindamycin, clindamycin]	no effect	0.13	≦0.5	–	–	–	–
CCCCCCCCCC(=O)N[C@@H](Cc1c[nH]c2ccccc12)C(=O)N[C@H](CC(N)=O)C(=O)N[C@@H](CC(=O)O)C(=O)N[C@@H]1C(=O)NCC(=O)N[C@@H](CCCN)C(=O)N[C@@H](CC(=O)O)C(=O)N[C@H](C)C(=O)N[C@@H](CC(=O)O)C(=O)NCC(=O)N[C@H](CO)C(=O)N[C@@H]([C@H](C)CC(=O)O)C(=O)N[C@@H](CC(=O)c2ccccc2N)C(=O)O[C@@H]1C [Daptomycin, daptomycin]	no measurable synergy; also recorded: no effect	–	no measurable synergy; also recorded: no effect	256 µg/mL (≈ 158 µM)	32 µg/mL (≈ 19.7 µM)	> 256 µg/mL	ΔLogCFU vs 24 hr [5, 10]: −1.04; Log CFU Mean [5, 10]: 6.6; Fold decrease in MIC (envA+/envA1) [6]: 8; MIC shift due to modification of envA ([6]; isogenic envA1 (D22) vs envA+ (D21) E. coli): 8 ×
C[C@H]1COc2c(N3CCN(C)CC3)c(F)cc3c(=O)c(C(=O)O)cn1c23 [Levofloxacin]	no effect	0.63	0.5	–	–	–	–
CC(=O)NC[C@H]1CN(c2ccc(N3CCOCC3)c(F)c2)C(=O)O1 [Linezolid, linezolid]	no effect	–	≦0.5	–	–	–	Synergy Score ([8]; with LpxCi-1, antibacterial agent at 1/16 MIC): 0.46; Synergy Score ([8]; with LpxCi-1, antibacterial agent at 1/64 MIC): 1.03; Synergy Score ([8]; with LpxCi-1, antibacterial agent at ¼ MIC): 0.54; Synergy Score ([8]; with LpxCi-2, antibacterial agent at ¼ MIC): 1.25; Synergy Score ([8]; with LpxCi-3, antibacterial agent at 1/16 MIC): 1.06; Synergy Score ([8]; with LpxCi-3, antibacterial agent at 1/64 MIC): 1.02; Synergy Score ([8]; with LpxCi-3, antibacterial agent at ¼ MIC): 0.58
CO[C@H]1/C=C/O[C@@]2(C)Oc3c(C)c(O)c4c(O)c(c(/C=N/N5CCN(C)CC5)c(O)c4c3C2=O)NC(=O)/C(C)=C\C=C\[C@H](C)[C@H](O)[C@@H](C)[C@@H](O)[C@@H](C)[C@H](OC(C)=O)[C@@H]1C [Rifampin, rifampin]	≦1.0	0.19	≦0.08	16 µg/mL (≈ 19.4 µM)	0.25 µg/mL (≈ 0.304 µM)	16 µg/mL (≈ 19.4 µM)	FICI index ([1]; listed as rifampin): < 1.0; ΔLogCFU vs 24 hr [5, 11]: −0.28; Log CFU Mean [5, 11]: 7.46; in vivo synergy with LpxC inhibitors ([5]; P. aeruginosa (ATCC27853), summary): surprising in vivo synergy; drop in CFU relative to vehicle ([5]; each agent at 30 mg/kg): 0.28 log; in vivo synergy with multiple LpxC inhibitors [9]: surprising in vivo synergy
gentamicin	0.38	0.5	0.75	–	–	–	–
teicoplanin	no effect	≦0.25	≦0.37	> 256 µg/mL	32 µg/mL	> 256 µg/mL	Fold decrease in MIC (envA+/envA1) [6]: ≧8

Source: patent US20120283175A1, “ANTIBACTERIAL COMPOSITIONS” (Achaogen, Inc., priority 2009, published 2012)
